ChEMBL document CHEMBL1255204, “Identification of the first non-peptidic small molecule inhibitor of the c-Abl/14-3-3 protein-protein interactions able to drive sensitive and Imatinib-resistant leukemia cells to apoptosis” (2010)
The source made the active and inactive calls. The rule behind the calls is not given here.

How the values were obtained:
[1] = Cytotoxicity against mouse BA/F3 cells overexpressing BCR-Abl T315I mutant; assay type: functional; conditions: BaF3, read-out: LD50 (the source's name)
[2] = molecular target: Tyrosine-protein kinase ABL1 (Mus musculus) (UniProt P00520); test: Induction of translocation of cAbl in to mitochondria of mouse BA/F3 cells; conditions: BaF3
[3] = molecular target: Tyrosine-protein kinase ABL1 (Mus musculus) (UniProt P00520); test: Induction of nuclear translocation of cAbl of mouse BA/F3 cells; assay type: cell-based; conditions: BaF3
[4] = molecular target: Tyrosine-protein kinase ABL1 (Mus musculus) (UniProt P00520); test: Induction of translocation of cAbl in to mitochondria of mouse BA/F3 cells assessed as caspase9 cleavage; conditions: BaF3
[5] = Cytotoxicity against mouse BA/F3 cells; assay type: functional; conditions: BaF3, read-out: LD50 (the source's name)
[6] = molecular target: Bcr/Abl fusion protein (Homo sapiens) (UniProt P00519+P11274); test: Binding affinity to Bcr-Abl expressed in mouse BA/F3 cells at 5 uM; assay type: cell-based; conditions: BaF3
[7] = molecular target: Tyrosine-protein kinase ABL1 (Mus musculus) (UniProt P00520); test: Induction of translocation of cAbl in to mitochondria of mouse BA/F3 cells assessed as caspase 8 cleavage; conditions: BaF3

Tyrosine-protein kinase ABL1 (Mus musculus), sequence (P00520 whole entry): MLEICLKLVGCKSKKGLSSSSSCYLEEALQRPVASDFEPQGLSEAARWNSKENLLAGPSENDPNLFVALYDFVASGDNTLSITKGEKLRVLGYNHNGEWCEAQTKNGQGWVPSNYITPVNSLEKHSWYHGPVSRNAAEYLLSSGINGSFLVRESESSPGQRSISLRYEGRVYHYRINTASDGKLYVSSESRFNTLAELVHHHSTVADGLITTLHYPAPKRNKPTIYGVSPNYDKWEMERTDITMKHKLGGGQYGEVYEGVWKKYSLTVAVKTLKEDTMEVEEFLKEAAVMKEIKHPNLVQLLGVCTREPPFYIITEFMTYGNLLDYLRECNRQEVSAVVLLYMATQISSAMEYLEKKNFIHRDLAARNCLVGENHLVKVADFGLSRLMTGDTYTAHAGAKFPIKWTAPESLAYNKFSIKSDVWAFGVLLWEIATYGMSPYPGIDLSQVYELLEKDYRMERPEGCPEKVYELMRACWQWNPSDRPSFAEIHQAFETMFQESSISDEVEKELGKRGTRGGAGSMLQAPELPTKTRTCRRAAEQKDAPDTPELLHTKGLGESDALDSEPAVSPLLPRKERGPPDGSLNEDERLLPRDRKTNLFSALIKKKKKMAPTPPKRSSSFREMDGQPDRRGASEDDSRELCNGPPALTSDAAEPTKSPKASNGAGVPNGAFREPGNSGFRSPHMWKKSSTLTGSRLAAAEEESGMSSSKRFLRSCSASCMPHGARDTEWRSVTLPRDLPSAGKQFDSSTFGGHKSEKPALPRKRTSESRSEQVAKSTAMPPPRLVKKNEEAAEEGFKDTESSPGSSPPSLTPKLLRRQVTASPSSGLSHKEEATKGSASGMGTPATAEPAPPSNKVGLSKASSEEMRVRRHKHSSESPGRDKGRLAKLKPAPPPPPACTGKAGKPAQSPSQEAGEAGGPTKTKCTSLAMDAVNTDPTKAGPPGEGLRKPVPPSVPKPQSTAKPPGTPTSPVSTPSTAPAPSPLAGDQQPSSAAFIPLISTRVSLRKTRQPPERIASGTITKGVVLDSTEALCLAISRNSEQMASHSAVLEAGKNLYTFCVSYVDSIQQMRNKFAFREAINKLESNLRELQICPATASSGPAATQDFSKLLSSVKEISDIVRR
Bcr/Abl fusion protein (Homo sapiens), sequence (P00519 whole entry, looked up, the tested form may be a part): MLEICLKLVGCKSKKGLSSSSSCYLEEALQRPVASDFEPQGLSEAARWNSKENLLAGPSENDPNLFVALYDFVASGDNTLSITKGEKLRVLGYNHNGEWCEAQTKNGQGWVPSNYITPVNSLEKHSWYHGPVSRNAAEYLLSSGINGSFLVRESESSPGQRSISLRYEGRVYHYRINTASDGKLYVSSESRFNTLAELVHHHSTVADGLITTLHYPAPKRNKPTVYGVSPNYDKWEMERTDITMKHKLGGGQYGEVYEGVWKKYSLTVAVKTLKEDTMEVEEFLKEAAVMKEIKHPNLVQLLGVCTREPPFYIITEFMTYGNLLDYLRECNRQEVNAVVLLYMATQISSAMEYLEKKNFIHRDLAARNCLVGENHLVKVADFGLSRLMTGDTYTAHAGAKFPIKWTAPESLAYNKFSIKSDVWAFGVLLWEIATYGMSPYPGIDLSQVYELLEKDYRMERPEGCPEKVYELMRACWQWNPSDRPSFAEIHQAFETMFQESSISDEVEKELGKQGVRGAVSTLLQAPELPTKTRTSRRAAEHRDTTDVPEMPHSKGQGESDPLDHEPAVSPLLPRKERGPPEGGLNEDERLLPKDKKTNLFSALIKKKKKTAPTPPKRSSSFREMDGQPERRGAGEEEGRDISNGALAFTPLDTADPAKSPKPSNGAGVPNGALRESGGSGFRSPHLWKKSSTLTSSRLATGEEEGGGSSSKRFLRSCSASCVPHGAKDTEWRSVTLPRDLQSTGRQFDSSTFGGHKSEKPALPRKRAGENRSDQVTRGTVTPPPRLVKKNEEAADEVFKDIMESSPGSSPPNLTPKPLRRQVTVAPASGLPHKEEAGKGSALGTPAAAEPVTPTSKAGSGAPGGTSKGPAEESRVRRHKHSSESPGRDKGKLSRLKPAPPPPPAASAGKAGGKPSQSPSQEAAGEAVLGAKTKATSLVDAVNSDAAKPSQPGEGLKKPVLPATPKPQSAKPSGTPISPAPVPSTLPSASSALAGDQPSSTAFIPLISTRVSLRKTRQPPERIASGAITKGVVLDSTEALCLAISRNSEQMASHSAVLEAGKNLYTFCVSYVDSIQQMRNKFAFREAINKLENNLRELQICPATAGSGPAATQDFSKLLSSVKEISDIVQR
Bcr/Abl fusion protein (Homo sapiens), sequence (P11274 whole entry, looked up, the tested form may be a part): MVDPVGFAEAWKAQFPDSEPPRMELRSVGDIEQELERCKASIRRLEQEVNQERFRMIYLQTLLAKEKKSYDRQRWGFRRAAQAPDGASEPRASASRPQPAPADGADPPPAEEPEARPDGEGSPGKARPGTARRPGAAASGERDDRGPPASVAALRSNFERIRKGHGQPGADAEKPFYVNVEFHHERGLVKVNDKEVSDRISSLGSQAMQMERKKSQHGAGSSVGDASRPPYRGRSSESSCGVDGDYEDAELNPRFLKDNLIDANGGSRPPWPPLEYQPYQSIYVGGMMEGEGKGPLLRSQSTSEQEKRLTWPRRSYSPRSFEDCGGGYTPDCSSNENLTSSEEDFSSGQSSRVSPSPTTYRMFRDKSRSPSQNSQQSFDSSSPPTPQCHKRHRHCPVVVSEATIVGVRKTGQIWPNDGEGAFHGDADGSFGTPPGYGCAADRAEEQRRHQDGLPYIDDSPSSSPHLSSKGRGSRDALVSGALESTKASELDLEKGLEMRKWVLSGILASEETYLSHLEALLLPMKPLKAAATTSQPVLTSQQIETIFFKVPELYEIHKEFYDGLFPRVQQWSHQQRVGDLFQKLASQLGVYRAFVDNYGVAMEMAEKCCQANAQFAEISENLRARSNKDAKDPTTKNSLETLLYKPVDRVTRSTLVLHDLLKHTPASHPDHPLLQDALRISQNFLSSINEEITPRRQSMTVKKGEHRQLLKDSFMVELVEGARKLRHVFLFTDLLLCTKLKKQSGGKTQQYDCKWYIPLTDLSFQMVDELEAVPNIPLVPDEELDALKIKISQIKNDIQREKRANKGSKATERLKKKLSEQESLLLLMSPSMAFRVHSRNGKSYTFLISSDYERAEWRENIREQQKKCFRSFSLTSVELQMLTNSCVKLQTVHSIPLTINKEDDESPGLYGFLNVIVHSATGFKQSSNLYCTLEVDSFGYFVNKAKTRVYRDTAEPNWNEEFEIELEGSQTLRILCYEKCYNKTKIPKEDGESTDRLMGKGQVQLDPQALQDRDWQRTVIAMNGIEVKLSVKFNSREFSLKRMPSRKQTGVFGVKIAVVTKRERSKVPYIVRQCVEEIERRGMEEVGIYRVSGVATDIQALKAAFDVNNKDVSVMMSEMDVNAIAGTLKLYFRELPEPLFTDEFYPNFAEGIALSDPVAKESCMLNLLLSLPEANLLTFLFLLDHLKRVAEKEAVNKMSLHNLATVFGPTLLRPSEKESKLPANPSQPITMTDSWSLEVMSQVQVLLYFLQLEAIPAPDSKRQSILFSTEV

## Cc1c(NC(=O)c2c(C(=O)O)cccc2C(=O)O)c(=O)n(-c2ccccc2)n1C
[1]
  CC50: 1470 nM
[2]
  Activity: Active
[3]
  Activity: Active
[4]
  Activity: Active
[5]
  CC50: 1040 nM
[6]
  Activity: Active
[7]
  Activity: Active
